In patent US20250275958A1, “GPCR REGULATOR AND USE THEREOF” (BEIJING CHANGPING LABORATORY, priority 2022, published 2025):
Read-outs that look alike come from different tables or passages of the source.

Experiments:
TNF-α = test: Determination of level of tumor necrosis factor (TNF-α) as cell inflammatory marker, ELISA, LPS-treated HepG2 cells; type: cell-based; conditions: Homo sapiens, 48 h of drug administration, read-out: EC50 (activity in reducing TNF-α)
Description: HepG2 cells were inoculated in 96-well plates at a density of 30%. After incubation for 18 h to allow the cells to adhere to wall, the original culture medium was removed, and each well of the drug group was added with LPS culture medium (LPS concentration was […]), the control group was added with an equal amount of DMSO, and incubation was performed overnight. […] Three replicate wells were set for each compound. After 48 h of drug administration, the cell supernatant was collected with a sterile tube, and centrifuged for about 20 minutes (2000 to 3000 rpm). The supernatant was carefully collected. The TNF-α level was then determined using ELISA method. The specific steps were as follows: • Standard sample addition: Standard sample wells and sample wells were set, and 50 μL of standard sample at different concentrations was added to each standard sample well. • Sample addition: Blank wells (blank control wells was not added with sample and ELISA reagent, and the rest operations were the same) and test sample wells were set. First, 40 μL of sample diluent was added to each test sample well on an ELISA plate, and then 10 μL of the sample to be tested (the final dilution ratio of sample was 5) was added. The sample was added to the bottom of the well of the ELISA plate, not touching the well wall as much as possible, and then the gentle shaking was carried out for mixing. • Enzyme addition: 100 μL of ELISA reagent was added to each well, except for the blank wells. • Incubation: The plate was sealed with a sealing film and incubated at 37° C. for 60 minutes. • Solution preparation: 20-Fold concentrated washing solution was diluted by 20-fold with distilled water for later use. • Washing: The sealing film was carefully peeled off, the liquid was discarded, the plate was spin-dried; each well was filled with the washing solution, allowed to stand for 30 seconds and then the washing solution was discarded. This operation was repeated 5 times, and pat-drying was performed. • Color development: First, 50 μL of color developer A was added to each well, then 50 μL of color developer B was added, gently shaken and mixed, and color development was performed at 37° C. in the dark for 15 minutes. • Termination: 50 μL of termination liquid was added to each well to stop the reaction (the blue color immediately turned yellow). • Determination: Zero was set with the blank well, and the absorbance (OD value) at 450 nm of each well was measured in sequence. The determination should be performed within 15 minutes after adding the termination liquid.
TNF-α content in the sample to be tested could be calculated by drawing a standard curve based on the standard samples. TNF-α reduction rate was further calculated. The formula for calculating TNF-α reduction was Reduction rate (%)=TNF-α contentcontrol−TNF-α contentto be tested/TNF-α contentcontrol×100.
In the above experiment, the compounds with higher TNF-α reduction rate and lower EC50 value could better reduce the level of inflammation.

GPR132 = target: T1, GPR132 (Homo sapiens, UniProt Q9UNW8); test: G protein activation (Gi BRET probes, GPR132 co-transfected in HEK293 cells); type: cell-based; conditions: stimulated 2 minutes, read-out: GPR132 EC50 (GPR132 agonist activity)
T1 construct: expressed in transfected cells; host or cells: HEK293 cells (transient co-transfection)
T1 sequence (Q9UNW8 1-380): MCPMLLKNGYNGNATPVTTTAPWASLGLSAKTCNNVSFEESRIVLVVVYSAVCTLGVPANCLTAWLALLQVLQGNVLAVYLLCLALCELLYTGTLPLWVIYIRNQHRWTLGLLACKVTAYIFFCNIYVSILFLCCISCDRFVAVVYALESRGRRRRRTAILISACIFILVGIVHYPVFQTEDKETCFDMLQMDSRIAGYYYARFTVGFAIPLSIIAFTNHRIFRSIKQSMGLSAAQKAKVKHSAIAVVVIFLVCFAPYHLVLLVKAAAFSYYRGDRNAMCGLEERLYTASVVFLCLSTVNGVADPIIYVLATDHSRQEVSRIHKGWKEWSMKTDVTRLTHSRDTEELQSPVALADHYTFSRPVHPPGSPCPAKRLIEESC
Description: Gi BRET probes were generated according to previous literature (Olsen et al., 2020), and included Gαi-RLuc8, Gβ3, and Gγ9-GFP2. GPR132 and Gi BRET probes were transiently co-transfected in HEK293 cells. 24 hours after transfection, the cells were distributed into 96-well microplates at a density of 5×10^4 cells per well and cultured for another 24 hours. The cells were washed twice with Tyrode buffer and stimulated with compound ligands at different concentrations (10^−12 to 10^−5 M) for 2 minutes. After adding coelenterazine, the substrate of luciferase, 400a (5 μM), BRET signal was measured using a Mithras LB940 microplate reader equipped with a BRET filter set. The BRET signal was calculated as the emission light ratio at 510 nm/400 nm.
The compounds with lower EC50 values in the above experiments had good GPR132 agonist activity.

| EC50 (GPR132) [nM] | EC50 (GPR132; class symbols) [nM] | Compound | EC50 (TNF-α) [nM] | EC50 (TNF-α; class symbols) [nM] |
| --- | --- | --- | --- | --- |
| 6500 | – | Cc1c(C(=O)O)oc2ccc(NC(=O)CCc3ccccc3)cc12 [Example 16] | 10200 | – |
| 510 | – | Cc1c(C(=O)O)oc2ccc(NC(=O)/C=C/c3cccc(I)c3)cc12 [Example 18, (E)-5-(3-(3-IODOPHENYL)ACRYLAMIDO)-3-METHYLBENZOFURAN-2-CARBOXYLIC ACID] | 1000 | – |
| 2100 | – | Cc1c(C(=O)O)oc2ccc(S(=O)(=O)N(CCc3ccccc3)CCc3ccccc3)cc12 [Example 28, 3-Methyl-5-(N,N-diphenylethylsulfamoyl)benzofuran-2-carboxylic acid] | 3100 | – |
| – | 1000 to 10000 | Cc1c(C(=O)O)oc2ccc(S(=O)(=O)N(CCc3ccccc3)c3ccccc3)cc12 [Example 27, 3-METHYL-5-(N-PHENETHYL-N-PHENYLSULFAMOYL)BENZOFURAN-2-CARBOXYLIC ACID] | – | 10000 to 50000 |
| – | 1000 to 10000 | Cc1c(C(=O)O)oc2ccc(S(=O)(=O)N(CCc3ccccc3)Cc3cccc4cccnc34)cc12 [Example 26, 3-METHYL-5-(N-(QUINOLIN-8-YLMETHYL)-N-PHENYLETHYLSULFAMOYL)BENZOFURAN-2-CARBOXYLIC ACID] | – | 10000 to 50000 |
| – | 10 to 1000 | Cc1c(C(=O)O)oc2ccc(NC(=O)CCC(=O)c3ccccc3)cc12 [Example 20] | – | 10 to 10000 |
| – | 1000 to 10000 | Cc1c(C(=O)O)oc2ccc(S(=O)(=O)N(CCc3ccccc3)c3ccc(N4CCN(S(C)(=O)=O)CC4)cc3)cc12 [Example 29, 3-METHYL-5-(N-(4-(4-(METHYLSULFONYL)PIPERAZIN-1-YL)PHENYL)-N-PHENYLETHYLSULFAMOYL)BENZOFURAN-2-CARBOXYLIC ACID] | – | 10000 to 50000 |
| 300 | – | Cc1c(C(=O)O)oc2ccc(S(=O)(=O)N(CCc3ccccc3)Cc3ccc(Br)cc3)cc12 [Example 24, 3-METHYL-5-(N-(4-BROMOBENZYL)-N-PHENYLETHYLSULFAMOYL)BENZOFURAN-2-CARBOXYLIC ACID] | 700 | – |
| – | 10 to 1000 | Cc1c(C(=O)O)oc2ccc(S(=O)(=O)N(CCc3ccccc3)c3ccc(Oc4ccccc4)cc3)cc12 [Example 30, 3-METHYL-5-(N-(4-PHENOXYPHENYL)-N-PHENYLETHYLSULFAMOYL)BENZOFURAN-2-CARBOXYLIC ACID] | – | 10000 to 50000 |
| – | 1000 to 10000 | Cc1c(C(=O)O)oc2ccc(NC(=O)CCCCc3ccccc3)cc12 [Example 21, 3-METHYL-5-(5-PHENYLVALERAMIDO)BENZOFURAN-2-CARBOXYLIC ACID] | – | 10 to 10000 |
| 3800 | – | Cc1c(C(=O)O)oc2ccc(S(=O)(=O)N(CCc3ccccc3)Cc3ccccc3)cc12 [Example 23, 3-METHYL-5-(N-BENZYL-N-PHENYLETHYLSULFAMOYL)BENZOFURAN-2-CARBOXYLIC ACID] | 5900 | – |
| – | 10 to 1000 | Cc1c(C(=O)O)oc2ccc(S(=O)(=O)N(CCc3ccccc3)Cc3ccc(C(=O)OC(C)(C)C)cc3)cc12 [Example 25, 3-METHYL-5-(N-(4-(TERT-BUTYLOXYCARBONYL)BENZYL)-N-PHENYLETHYLSULFAMOYL) BENZOFURAN-2-CARBOXYLIC ACID] | – | 10 to 10000 |
| – | 10 to 1000 | Cc1c(C(=O)O)oc2ccc(NC(=O)/C=C/c3ccccc3)cc12 [Example 17] | – | 10 to 10000 |
| – | 1000 to 10000 | Cc1c(C(=O)O)oc2ccc(NC(=O)[C@H]3C[C@H]3c3ccccc3)cc12 [Example 19, 3-METHYL-5-((1S,2R)-2-PHENYLCYCLOPROPANE-1-CARBOXAMIDO) BENZOFURAN-2-CARBOXYLIC ACID] | – | 10000 to 50000 |
| – | 10 to 1000 | Cc1c(C(=O)O)oc2ccc(OCCCc3ccccc3)cc12 [Example 22, 3-METHYL-5-(3-PHENYLPROPOXY)BENZOFURAN-2-CARBOXYLIC ACID] | – | 10 to 10000 |
